Measurements from patent US20060189673A1, “Phenylazole compound, production process therefor and antioxidant” (Nippon Soda Co., Ltd., priority 2003, published 2006).
Read-outs that look alike come from different tables or passages of the source.

Experiments:
[1] = test system: lipid peroxide in homogenates of brain, heart and kidneys; test: Tissue migration: antioxidative action on lipids ex vivo in tissue homogenates after intraperitoneal administration; details: Rattus norvegicus, ip, 0.5 h, male SD rats, 100 mg/kg intraperitoneally, 30 minutes after administration
Procedure: (§1) The antioxidative action on lipids in vitro of the compounds according to the present invention was evaluated in accordance with the method of Malvy et al. (Malvy C. et al.,) described in Biochemical and Biophysical Research Communications, 1980, vol. 95, pp. 734 to 737,) by measuring the lipid peroxide activity in a rat brain homogenate. Namely, the rat brain was removed followed by the addition of five volumes of an aqueous solution of phosphate buffered saline (pH 7.4) (hereinafter, abbreviated as PBS) to the brain while cooling with water, homogenizing with a Teflon homogenizer, and centrifuging for 20 minutes at 10,000 g to collect the supernatant as a brain homogenate. 500 μM cysteine, 5 μM ferrous sulfate, and 100 mM KCl were added to the resulting brain homogenate followed by incubating for 30 minutes at 37° C. and measuring the malondialdehyde that formed due to decomposition of lipid peroxide using the thiobarbituric acid method. The 50% inhibitory concentrations (hereinafter, abbreviated as IC50) of the compounds according to the present invention were then determined from the measured values.
Tissue migration of the compounds according to the present invention was evaluated by measuring the antioxidative action on lipids ex vivo. A test compound dissolved or suspended in an aqueous physiological saline solution or aqueous physiological saline solution containing 1% polyethylene hardened castor oil (Nikko Chemicals: Nikkol HCO-60) was intraperitoneally administered to male SD rats (age: 6 weeks) (purchased from Japan SLC) in groups of 3 animals each at a dose of 100 mg/kg. The animals were sacrificed by exsanguination by severing the carotid artery 30 minutes after administration followed by removing the brain, heart and kidneys. The lipid peroxide activity of homogenates of each tissue was measured using the method described in Example 3. The inhibition rates of the test compounds in each tissue were determined from the amounts of lipid peroxide formed in a control group (physiological saline dose group) and test compound groups.

[2] = test system: mice administered ferrous chloride into the spinal subarachnoid cavity; test: Antioxidative action in vivo: abnormal behavior and mortality after ferrous chloride into the spinal subarachnoid cavity; design: species or system mouse; details: male ICR mice, 30 minutes before ferrous chloride, score after 60 minutes
Procedure: The antioxidative action in vivo of the compounds according to the present invention was evaluated according to the method described in the Journal of Medical Chemistry (J. Med. Chem., 1997, vol. 40, pp. 559 to 573) based on the inhibitory effects on abnormal behavior and mortality rate following administration of ferrous chloride into the spinal subarachnoid cavity of mice. Male S1c:ICR mice (age: 5 weeks) (purchased from Japan SLC) were used in groups of 3 to 7 animals each, and were administered 5 μl of aqueous physiological saline solution containing 50 mM ferrous chloride into the spinal column between the 5th and 6th lumbar vertebra. […] The test compounds were dissolved or suspended in an aqueous physiological saline solution or an aqueous physiological saline solution containing 1% polyethylene hardened castor oil (manufactured by Nikko Chemicals CO., LTD. under the name of NIKKOL HCO-60), and administered intraperitoneally or orally 30 minutes before the administration of ferrous chloride. The 50% inhibitory dose (hereinafter, abbreviated as ID50) of each test compound was determined from the score of a control group (physiological saline treated group) and the score of each test compound treated group.

[3] = test system: lipid peroxides in retina homogenate; test: Retina migration: formation of lipid peroxides in retina ex vivo after oral administration; design: species or system rat; details: male SD rats, retinas removed 30 minutes later, auto-oxidized 1 hour at 37° C.
Procedure: The retina migration of the compounds according to the present invention was evaluated. The test compounds dissolved or suspended in 0.1 N aqueous hydrochloric acid solution or 1% polyethylene hardened castor oil (Nikkol HCO-60) solution were orally administered to male SD rats (age: 6 weeks) in groups of three animals each followed by removing both eyes 30 minutes later and separating the retinas while cooling with ice. The retinas were homogenized with a Polytron Microhomogenizer (NS-310E: manufactured by Niti-On Medical and Physical Instruments) in 0.1 M Tris-HCl buffer (pH 7.4) while cooling with ice to prepare 5% homogenates. The homogenates were then auto-oxidized for 1 hour at 37° C., and the amounts of lipid peroxide that formed were quantified using the thiobarbituric acid method (Masugi, et al., Vitamin, 51, 21 to 29, 1977).

[4] = test system: lipid peroxide in rat brain homogenate; test: Antioxidative action on lipids in vitro (lipid peroxide activity in rat brain homogenate, thiobarbituric acid method); type: biochemical; details: 500 μM cysteine, 5 μM ferrous sulfate, 100 mM KCl, 30 minutes at 37° C., malondialdehyde, read-out: 50% inhibitory concentration of anti-lipid peroxide action in vitro (IC50)
Procedure: as §1

15-lipoxygenase (15-LO) = molecular target: T1, 15-lipoxygenase (15-LO) (Oryctolagus cuniculus, UniProt P12530); test: 15-LO inhibitory activity (15-LO from rabbit reticulocytes, linoleic acid, 15-HETE formation); type: biochemical; details: 256 μM linoleic acid, 4° C., read-out: Lipoxygenase inhibitory action 50% inhibitory concentration (IC50 μm) 15-LO
T1 construct: 15-LO obtained from rabbit reticulocytes; from tissue; host or cells: rabbit reticulocytes
T1 sequence (P12530 1-663): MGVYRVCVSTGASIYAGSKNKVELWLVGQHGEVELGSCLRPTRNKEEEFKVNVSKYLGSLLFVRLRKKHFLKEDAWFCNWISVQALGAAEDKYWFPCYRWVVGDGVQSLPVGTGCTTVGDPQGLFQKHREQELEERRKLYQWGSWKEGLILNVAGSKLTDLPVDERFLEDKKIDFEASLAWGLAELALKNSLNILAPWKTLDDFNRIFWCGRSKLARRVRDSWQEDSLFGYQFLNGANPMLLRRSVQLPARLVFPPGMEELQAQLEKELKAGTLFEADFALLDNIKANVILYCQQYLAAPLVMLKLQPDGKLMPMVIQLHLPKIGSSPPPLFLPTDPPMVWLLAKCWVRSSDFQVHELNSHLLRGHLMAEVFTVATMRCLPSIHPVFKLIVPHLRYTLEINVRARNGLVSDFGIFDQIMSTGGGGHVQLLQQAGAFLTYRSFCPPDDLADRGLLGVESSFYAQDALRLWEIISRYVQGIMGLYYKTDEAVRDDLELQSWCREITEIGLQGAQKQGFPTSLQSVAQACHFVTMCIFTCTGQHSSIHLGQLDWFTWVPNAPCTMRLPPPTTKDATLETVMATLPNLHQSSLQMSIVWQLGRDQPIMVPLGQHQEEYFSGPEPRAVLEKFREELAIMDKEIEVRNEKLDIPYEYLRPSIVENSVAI
Procedure: 15-LO inhibitory activity was measured using a variation of the method of Auerbach et al. (Auerbach B. J. et al., Anal. Biochem., 201, 375 to 380, 1992). Namely, after pre-incubating (4° C., 15 minutes) in phosphate buffer (pH 7.4) 15-LO obtained from rabbit reticulocytes and a test compound dissolved in DMSO (final concentration: 1%), 256 μM linoleic acid was added and the resulting solution was additionally incubated (4° C., 10 minutes). The resulting 15-HETE that formed was quantified by spectrophotometry (OD660 nm), and the 50% formation inhibitory concentration (μM) of the test compound with respect to 15-LO was calculated from that value.

5-lipoxygenase (5-LO) = molecular target: T2, 5-lipoxygenase (5-LO) (Homo sapiens, UniProt P09917); test: 5-LO inhibitory activity (leucotriene B4 formation in human peripheral blood mononuclear cells, A23187); type: cell-based; details: 30 μM A23187, read-out: Lipoxygenase inhibitory action 50% inhibitory concentration (IC50 μm) 5-LO
T2 construct: human peripheral blood mononuclear cells; endogenous in cells; host or cells: human peripheral blood mononuclear cells
T2 sequence (P09917 1-674): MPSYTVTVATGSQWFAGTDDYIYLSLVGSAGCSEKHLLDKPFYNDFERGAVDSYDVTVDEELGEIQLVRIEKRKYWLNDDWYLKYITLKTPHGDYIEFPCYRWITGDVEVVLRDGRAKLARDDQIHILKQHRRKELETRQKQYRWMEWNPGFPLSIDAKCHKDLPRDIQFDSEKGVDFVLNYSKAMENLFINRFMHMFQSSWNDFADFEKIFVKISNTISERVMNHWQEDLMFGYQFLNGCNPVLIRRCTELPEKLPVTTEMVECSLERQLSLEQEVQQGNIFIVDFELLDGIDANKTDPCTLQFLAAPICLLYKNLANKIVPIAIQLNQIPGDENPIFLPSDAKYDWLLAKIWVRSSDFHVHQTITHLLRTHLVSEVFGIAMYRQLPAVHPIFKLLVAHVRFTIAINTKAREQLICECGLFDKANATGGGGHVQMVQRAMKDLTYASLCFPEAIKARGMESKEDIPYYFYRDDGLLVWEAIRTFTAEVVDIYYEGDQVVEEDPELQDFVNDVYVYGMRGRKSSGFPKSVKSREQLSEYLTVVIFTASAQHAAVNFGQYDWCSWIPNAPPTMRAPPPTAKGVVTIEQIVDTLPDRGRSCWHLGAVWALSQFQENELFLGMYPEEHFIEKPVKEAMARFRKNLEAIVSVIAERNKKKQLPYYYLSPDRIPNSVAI
Procedure: 5-LO inhibitory activity was measured using a variation of the method of Carter et al. (Carter G. W. et al., J. Pharmacol. Exp. Ther., 256, 929 to 937, 1991). Namely, after pre-incubating (37° C., 15 minutes) in Hank's solution human peripheral blood mononuclear cells and a test compound dissolved in DMSO (final concentration: 1%), 30 μM A23187 was added and the resulting solution was additionally incubated (37° C., 30 minutes). The resulting leucotriene B4 that formed was quantified by enzyme immunoassay, and the 50% formation inhibitory concentration (μM) of the test compound with respect to 5-LO was calculated from that value.

[5] = brain, read-out: Inhibition rate of ex vivo anti-lipid peroxide action (%) Brain
[6] = heart, read-out: Inhibition rate of ex vivo anti-lipid peroxide action (%) Heart
[7] = kidney, read-out: Inhibition rate of ex vivo anti-lipid peroxide action (%) Kidney

| SMILES | inhibition at 100 mg/kg [1, 5] | inhibition at 100 mg/kg [1, 6] | inhibition at 100 mg/kg [1, 7] | Antioxidative action in vivo 50% inhibitory dose (ID50 mg/kg) Intraperitoneal administration [2] | Antioxidative action in vivo 50% inhibitory dose (ID50 mg/kg) Oral administration [2] | Inhibitory effect on formation of lipid peroxides in retina ex vivo 30% inhibitory concentration (ID30 mg/kg, oral administration) [3] | IC50 [4] | IC50 (15-lipoxygenase (15-LO)) | IC50 (5-lipoxygenase (5-LO)) |
| --- | --- | --- | --- | --- | --- | --- | --- | --- | --- |
| Cc1c(C)c2c(c(C)c1N)CC(C)(C(=O)Nc1ccc(-n3ccnc3)cc1)O2 (racemic) [Compound 1, (±)-(5-amino-2,4,6,7-tetramethyldihydrobenzofuran-2-yl)-N-[4-(imidazol-1-yl)phenyl]carboxamide] | 83% | 80% | 87% | 6.8 mg/kg | 9.7 mg/kg | 16 mg/kg | – | – | – |
| Cc1c(C)c2c(c(C)c1N)CC(C)(C(=O)Nc1ccc(-c3ccn[nH]3)cc1)O2 (stereo not drawn) [Compound 37] | 95% | 87% | 89% | 12 mg/kg | 27 mg/kg | 5.2 mg/kg | 800 nM | 2060 nM | 230 nM |
| Cc1c(C)c2c(c(C)c1O)CC(C)(OC=Nc1ccc(-n3ccnc3)cc1)O2 (stereo not drawn) [Control drug 1, reference compound] | 68% | 59% | 75% | >30 mg/kg | >30 mg/kg | – | 230 nM | – | – |
| Cc1c(C)c2c(c(C)c1O)CCC(C)(OC=Nc1ccc(-n3ccnc3)cc1)O2 (stereo not drawn) [Control drug 2, reference compound] | 45% | 57% | 84% | 20 mg/kg | 53 mg/kg | – | 230 nM | – | – |
